The results in this text go back to paper PMC3977315 (2010).

Experiment [1] has as its system poly(dA)•2poly(dT) (DNA, polymer) A/T. The experiment in a line: UV melting. The following applies: K+ 150 mM, 10 mM sodium cacodylate, pH 6.8, rdb 1.67.
Experiment [2] shares this test system. The experiment in a line: fluorescent intercalator displacement. The following applies: thiazole orange displaced.
Experiment [3] shares this test system. The experiment in a line: calorimetric/spectroscopic thermodynamic profile. The following applies: K+ 150 mM; 10 mM sodium cacodylate, 0.5 mM EDTA, pH 5.5, 20 °C.
Experiment [4] deals with poly(dA)•poly(dT) (DNA, polymer) A/T. The experiment in a line: fluorescent intercalator displacement. As to conditions: K+ 150 mM; Na+ 10 mM; thiazole orange not displaced; highest concentration 10 mM.

Each structure is given as a SMILES string.

With `NC[C@H]1O[C@H](O[C@H]2[C@H](O)[C@@H](O)[C@H](N)C[C@@H]2N)[C@H](N)[C@@H](O)[C@@H]1O`, in experiment [1], the binding entry is “weak”.

`NC[C@H]1O[C@H](O[C@H]2[C@H](O[C@@H]3O[C@H](CO)[C@@H](O)[C@H]3O)[C@@H](O)[C@H](N)C[C@@H]2N)[C@H](N)[C@@H](O)[C@@H]1O`: the binding result in experiment [2] is reported as “weak”.

In the case of `NC[C@@H]1O[C@H](O[C@H]2[C@@H](O)[C@H](O[C@@H]3[C@@H](O)[C@H](N)C[C@H](N)[C@H]3O[C@H]3O[C@H](CN)[C@@H](O)[C@H](O)[C@H]3N)O[C@@H]2CO)[C@H](N)[C@@H](O)[C@@H]1O`, the “KT(20°C)” value in experiment [3] is given as “(2.4±0.1)×10^5 M^−1”. Moreover, the ΔTm3→2 in experiment [1] (25 μM neomycin, per base) is ~ 25 °C. In experiment [4], this molecule yielded an AC50 of over 10 mM.
